From patent US8106050B2, “Derivatives of pyrrolo-pyrazines having a kinase inhibitory activity and their biological applications” (Centre National de la Recherche Scientifique (C.N.R.S.), priority 2002, dated 2012)
pIC50: −log10 of the molar value. Where a name gives a salt, the structure may show the parent alone. Read-outs that look alike come from different tables or passages of the source.

What was measured:
[1] = target: CDK1/cyclin B; assay: CDK1/cyclin B kinase assay (histone H1, 15 μM ATP); type: biochemical, starfish (Marthasterias glacialis); details: 15 μM ATP, Table 1
Procedure: (§1) Blank values were subtracted and activities calculated as pmoles of phosphate incorporated for a 10 min. incubation. […] Controls were performed with appropriate dilutions of dimethylsulfoxide. In a few cases phosphorylation of the substrate was assessed by autoradiography after SDS-PAGE.
CDK1/cyclin B was extracted in homogenisation buffer from M phase starfish (Marthasterias glacialis) oocytes and purified by affinity chromatography on p9^CKShs1-sepharose beads, from which it was eluted by free p9^CKShs1. […] ATP (3,000 Ci/mmol; 1 mCi/ml) in a final volume of 30 μl. After 10 min. incubation at 30° C., 25 μl aliquots of supernatant were spotted onto P81 phosphocellulose papers and treated as described above.
(§2) Kinases were assayed as above described in the presence of increasing concentrations of aloisines.

[2] = target: CDK5/p25 (Homo sapiens, UniProt Q00535); assay: CDK5/p25 kinase assay (histone H1, 15 μM ATP); type: biochemical, mammalian; details: Table 1
Sequence of CDK5/p25 (Q00535 whole entry, species assumed): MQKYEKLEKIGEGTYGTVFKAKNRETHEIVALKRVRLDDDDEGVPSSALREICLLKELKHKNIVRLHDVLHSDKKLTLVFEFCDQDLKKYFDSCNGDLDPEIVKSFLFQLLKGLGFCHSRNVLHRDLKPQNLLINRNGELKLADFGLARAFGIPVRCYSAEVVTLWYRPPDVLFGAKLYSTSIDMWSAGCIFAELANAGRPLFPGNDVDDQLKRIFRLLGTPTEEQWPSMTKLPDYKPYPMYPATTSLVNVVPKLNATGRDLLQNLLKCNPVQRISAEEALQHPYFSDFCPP
Sequence of CDK5/p25 (Q15078 99-307 partner limits assumed, species assumed): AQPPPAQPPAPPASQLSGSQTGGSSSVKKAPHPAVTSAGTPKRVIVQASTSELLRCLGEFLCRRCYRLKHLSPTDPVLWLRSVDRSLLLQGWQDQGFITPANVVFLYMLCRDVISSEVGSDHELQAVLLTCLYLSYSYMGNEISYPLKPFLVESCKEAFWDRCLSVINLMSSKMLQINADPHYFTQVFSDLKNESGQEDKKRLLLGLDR
Procedure: as §1
CDK5/p25 was reconstituted by mixing equal amounts of recombinant mammalian CDK5 and p25 expressed in E. coli as GST (Glutathione-S-transferase) fusion proteins and purified by affinity chromatography on glutathione-agarose (p25 is a truncated version of p35, the 35 kDa CDK5 activator). Its activity was assayed in buffer C as described for CDK1/cyclin B.
as §2

[3] = target: GSK-3α/β; assay: GSK-3 kinase assay (GS-1 peptide, 15 μM ATP); type: biochemical, porcine; details: read-out: IC50 GSK-3
Procedure: as §1
GSK-3α/β was either purified from porcine brain or expressed in and purified from insect Sf9 cells. […] ATP (3,000 Ci/mmol; 1 mCi/ml) in a final volume of 30 μl. After 30 min. incubation at 30° C., 25 μl aliquots of supernatant were spotted onto 2.5×3 cm pieces of Whatman P81 phosphocellulose paper, and, 20 sec. later, the filters were washed five times (for at least 5 min. each time) in a solution of 10 ml phosphoric acid/liter of water. The wet filters were counted in the presence of 1 ml ACS (Amersham) scintillation fluid.
as §2

Row | pIC50 [1] | pIC50 [2] | pIC50 ([3]; 15 μM ATP, Table 1) | melting point | pIC50 [3] | SMILES
1 | 4.92 | 5.03 | 4.82 | 232.6 °C |  | c1coc(-c2cc3nccnc3[nH]2)c1 [1 (RP19), 6-(2-Furyl)[5H]pyrrolo[2,3-b]pyrazine]
2 | 5.15 | 5.70 | 5.92 | 260.3 °C |  | c1csc(-c2cc3nccnc3[nH]2)c1 [2 (RP6), 6-(2-Thienyl)[5H]pyrrolo[2,3-b]pyrazine]
3 | 5.64 | 6.00 | 6.10 | 230 °C (dec.) |  | c1cnc2[nH]c(-c3ccsc3)cc2n1 [3 (RP128)]
4 | 4.68 | 4.28 | 4.82 | 233.1 °C |  | c1ccc(-c2cc3nccnc3[nH]2)nc1 [4 (RP13), 6-(2-Pyridyl)[5H]pyrrolo[2,3-b]pyrazine]
5 | 5.30 | 5.40 | 5.64 | 216 °C |  | c1ccc(-c2cc3nccnc3[nH]2)cc1 [5 (RP7), 6-Phenyl[5H]pyrrolo[2,3-b]pyrazine]
6 | < 4.00 |  | 4.57 | 216.4 °C |  | c1ccc2c(-c3cc4nccnc4[nH]3)cccc2c1 [6 (RP17), 6-(1-Naphtyl) [5H]pyrrolo[2,3-b]pyrazine]
7 | 4.16 |  | < 4.00 | 261.8 °C |  | Cc1cnc2cc(-c3ccccc3)[nH]c2n1 [8 (RP18), 3-Methyl-6-phenyl[5H]pyrrolo[2,3-b]pyrazine]
8 | 4.52 |  | 6.00 | 189.7 °C |  | Clc1ccc(C2(c3cc4nccnc4[nH]3)CC2)cc1 [9 (RP124), 6-[1-(4-Chlorophenyl)-1-cyclopropyl][5H]pyrrolo[2,3-b]pyrazine]
9 | 4.70 |  | 5.48 | 156.9 °C |  | COc1ccccc1-c1cc2nccnc2[nH]1 [10 (RP9), 6-(2-Methoxyphenyl)[5H]pyrrolo[2,3-b]pyrazine]
10 | 5.60 | 5.52 | 5.19 | 250 °C (dec.) |  | Br.Oc1ccccc1-c1cc2nccnc2[nH]1 [11 (RP109), 6-(2-Hydroxyphenyl)[5H]pyrrolo[2,3-b]pyrazine hydrobromide]
11 | 4.89 |  | 5.49 | 195.7 °C |  | COc1cccc(-c2cc3nccnc3[nH]2)c1 [12 (RP10), 6-(3-Methoxyphenyl)[5H]pyrrolo[2,3-b]pyrazine]
12 | 5.60 |  |  | 258 °C (dec.) |  | Br.Oc1cccc(-c2cc3nccnc3[nH]2)c1 [13 (RP134), 6-(3-Hydroxyphenyl)[5H]pyrrolo[2,3-b]pyrazine hydrobromide]
13 | 5.92 |  |  | 255 °C (dec.) | 5.92 | Br.Oc1ccc(-c2cc3nccnc3[nH]2)cc1 [15 (RP26), 6-(4-Hydroxyphenyl) [5H]pyrrolo[2,3-b]pyrazine hydrobromide]
14 |  | < 4.00 | 4.22 | 216.7 °C |  | COc1cc(OC)cc(-c2cc3nccnc3[nH]2)c1 [16 (RP21), 6-(3,5-Dimethoxyphenyl)[5H]pyrrolo[2,3-b]pyrazine]
15 |  | < 4.00 | 4.07 | 231.7 °C |  | COc1cc(-c2cc3nccnc3[nH]2)cc(OC)c1OC [17 (RP16), 6-(3,4,5-Trimethoxyphenyl)[5H]pyrrolo[2,3-b]pyrazine]
16 | 5.64 |  | 5.72 | 244 °C (dec.) |  | Fc1ccc(-c2cc3nccnc3[nH]2)cc1 [18 (RP76), 6-(4-Fluorophenyl)[5H]pyrrolo[2,3-b]pyrazine]
17 | 5.74 |  |  | 250 °C (dec.) |  | Clc1ccc(-c2cc3nccnc3[nH]2)cc1 [19 (RP14), 6-(4-Chlorophenyl)[5H]pyrrolo[2,3-b]pyrazine]
18 |  | < 4.00 | 5.22 | 256 °C (dec.) |  | Brc1ccc(-c2cc3nccnc3[nH]2)cc1 [21 (RP77), 6-(4-Bromophenyl) [5H]pyrrolo[2,3-b]pyrazine]
19 | 5.52 |  | 5.32 | 340 °C (dec.) |  | N#Cc1ccc(-c2cc3nccnc3[nH]2)cc1 [23 (RP20), 6-(4-Cyanophenyl) [5H]pyrrolo[2,3-b]pyrazine]

Row | pIC50 [1] | pIC50 [2] | pIC50 ([3]; 15 μM ATP, Table 1) | melting point | pIC50 [3] | SMILES
20 | 5.52 |  | 5.59 | 265.4 °C |  | Cc1ccc(-c2cc3nccnc3[nH]2)cc1 [24 (RP78), 6-(4-Methylphenyl)[5H]pyrrolo[2,3-b]pyrazine]
21 | 6.52 |  | 6.34 | 221.6 °C |  | COc1ccc(-c2[nH]c3nccnc3c2C)cc1 [27 (RP95), 6-(4-Methoxyphenyl)-7-methyl[5H]pyrrolo[2,3-b]pyrazine]
22 | 6.60 |  | 6.28 | 262 °C (dec.) |  | Br.Cc1c(-c2ccc(O)cc2)[nH]c2nccnc12 [28 (RP96), 6-(4-Hydroxyphenyl)-7-methyl[5H]pyrrolo[2,3-b]pyrazine hydrobromide]
23 | 5.96 |  | 5.70 | 230.2 °C |  | COc1ccc(-c2[nH]c3nccnc3c2C)cc1OC [29 (RP123), 6-(3,4-Methoxyphenyl)-7-methyl[5H]pyrrolo[2,3-b]pyrazine]
24 |  |  | 5.77 | 260 °C (dec.) |  | Cc1c(-c2ccc(Cl)cc2)[nH]c2nccnc12 [30 (RP80), 6-(4-Chlorophenyl)-7-methyl[5H]pyrrolo[2,3-b]pyrazine]
25 | 6.15 | 6.05 | 6.30 |  |  | Cc1c(-c2ccc(OS(=O)(=O)N(C)C)cc2)[nH]c2nccnc12 [31 (RP125), 6-(4-Dimethylaminosulfamoyloxyphenyl)-7-methyl[5H]pyrrolo[2,3-b]pyrazine]
26 | 6.40 |  | 6.40 | 188.5 °C |  | CCCc1c(-c2ccc(OC)cc2)[nH]c2nccnc12 [32 (RP127)]
27 | 4.60 |  | 5.74 | 244 °C (dec.) |  | Br.CCCc1c(-c2ccc(O)cc2)[nH]c2nccnc12 [33 (RP132), 6-(4-Hydroxyphenyl)-7-propyl[5H]pyrrolo[2,3-b]pyrazine hydrobromide]
28 | 6.00 |  | 6.22 | 193.8 °C |  | C=CCc1c(-c2ccc(OC)cc2)[nH]c2nccnc12 [34 (RP110), 7-Allyl-6-(4-methoxyphenyl)[5H]pyrrolo[2,3-b]pyrazine]
29 |  |  | 5.60 | 178 °C (dec.) |  | COc1ccc(-c2[nH]c3nccnc3c2CCCCl)cc1 [35 (RP126), 7-(3-Chloropropyl)-6-(4-methoxyphenyl)[5H]pyrrolo[2,3-b]pyrazine]
30 |  |  | 6.30 | 204.8 °C |  | COc1ccc(-c2[nH]c3nccnc3c2C(C)C)cc1 [36 (RP102), 7-Isopropyl-6-(4-methoxyphenyl)[5H]pyrrolo[2,3-b]pyrazine]
31 | 6.07 |  | 6.12 | 208.6 °C |  | CC(C)c1c(-c2ccc(Cl)cc2)[nH]c2nccnc12 [37 (RP90), 6-(4-Chlorophenyl)-7-isopropyl[5H]pyrrolo[2,3-b]pyrazine]
32 |  |  | 6.04 |  |  | CCCCc1c(-c2ccc(OC)cc2)[nH]c2nccnc12 [38 (RP106), 7-n-Butyl-6-(4-methoxyphenyl)[5H]pyrrolo[2,3-b]pyrazine]
33 | 6.00 | < 4.00 | 5.96 |  |  | COc1ccc(-c2c(C)c3nccnc3n2C2CC2)cc1 [42 (RP104), 6-(4-Methoxyphenyl)-7-methylcyclopropyl[5H]pyrrolo[2,3-b]pyrazine]
34 |  | < 4.00 | 5.17 | 266.3 °C |  | Clc1ccc(-c2[nH]c3nccnc3c2Cc2ccccc2)cc1 [45 (RP91), 7-Benzyl-6-(4-chlorophenyl)[5H]pyrrolo[2,3-b]pyrazine]
35 | 5.30 | < 4.00 | 5.17 |  |  | COc1ccc(-c2c(C)c3nccnc3n2C2CCCCC2)cc1 [46 (RP98), 6-(4-Methoxyphenyl)-7-methylcyclohexyl[5H]pyrrolo[2,3-b]pyrazine]
36 | 5.00 | < 4.00 | 5.10 |  |  | Cc1c(-c2ccc(Cl)cc2)n(C2CCCCC2)c2nccnc12 [47 (RP99), 6-(4-Chlorophenyl)-7-methylcyclohexyl[5H]pyrrolo[2,3-b]pyrazine]
37 |  | 5.15 | < 4.00 |  |  | Cn1c(-c2ccccc2)cc2nccnc21 [48 (RP22)]
38 |  |  | 4.74 |  |  | Cc1c(C2(c3ccc(Cl)cc3)CC2)[nH]c2nccnc12 [49 (RP130)]

Row | SMILES | pIC50 [1] | pIC50 [2] | pIC50 ([3]; 15 μM ATP, Table 1) | melting point | pIC50 [3]
39 | Oc1ccc(-c2[nH]c3nccnc3c2CC2CC2)cc1 [43 (RP112), 6-(4-Hydroxyphenyl)-7-methylcyclopropyl[5H]pyrrolo[2,3-b]pyrazine hydrobromide] | 4.30 | < 4.00 | 5.52 |  | 
